Source: publication PMC8304608, “Impact of Membrane Lipids on UapA and AzgA Transporter Subcellular Localization and Activity in Aspergillus nidulans” (Journal of Fungi, 2021)

B1: AzgA (Aspergillus nidulans) (protein)
chain: MGYAEWIGRTNAAVARSPVGRWFRLEGSGHPRERKGAYFFTELRAGLATFFAMAYIISVNANITSDTGGTCVCPAEDLATACDNNTEYLLCKQEVNRDLVTATAAIAAIASFFLGLLANLPVALAPGMGLNAYFAYTVVGHHGTGLIPYSLAVTAVFVEGWIFLGLTLLGIRQWLARAIPASIKLATGAGIGLYLTLIGLSYSAGLGVVQGGTSSPIQLAGCASDTFGDDGLCPSSEKMRNPTMWIGIFCGGVFTVFLMMYRVKGAVIAGILLVSIISWPRPTPVTYFPHTETGDSSFDFFKKVVTFHPIQHTLVAQEWNISSNGGQFGLALITFLYVDILDATGTLYSMAKFAGAMDERTQDFEGSAMAYMVDAICISIGSLFGSPPVTAFVESGAGISEGGKTGLTSCMTGICFFIAVFFAPIFASIPPWATGSTLVIVGSMMMHATLEINWRYLGDAVPAFLTISLMPFTYSIADGLIAGILSYILINGGVWIVAKLTGGRISPPNREEEHEPWTWKIPGGFFPPWLVRAVHGKKDFWRAEDDANDLSLGVMPHGSLSSQDRAGEKLASSKEQVTEK
notes: full-length in native germinating conidiospores; GFP-tagged AzgA under native promoter used for localization (functionally replaces untagged)

What was measured:
UapA = target: T1, UapA (Aspergillus nidulans, UniProt Q07307); test: radiolabelled uptake in germinating conidiospores; assay type: cell-based; conditions: apparent Km; wild-type lipid background; [8-3H]-xanthine 0.1 μM with unlabelled substrate 0.5-1000 μM; pH 6.8, 37 °C; labelled compound; background of strain lacking transporter subtracted; read-out: Xanthine Uptake Kinetics / Km
T1 construct: full-length in native germinating conidiospores; GFP-tagged UapA under native promoter used for localization (functionally replaces untagged); homodimer
Source text: radiolabelled uptake in germinating conidiospores on UapA

[1] = substrate: Nc1ncnc2nc[nH]c12; test: radiolabelled uptake in germinating conidiospores; assay type: cell-based, Aspergillus nidulans; conditions: apparent Km, wild-type lipid background, [2,8-3H]-adenine 0.1 μM with unlabelled substrate 0.5-1000 μM, pH 6.8, 37 °C, labelled compound, background of strain lacking transporter subtracted
Source text: radiolabelled uptake in germinating conidiospores on AzgA

T1 sequence (Q07307 whole entry): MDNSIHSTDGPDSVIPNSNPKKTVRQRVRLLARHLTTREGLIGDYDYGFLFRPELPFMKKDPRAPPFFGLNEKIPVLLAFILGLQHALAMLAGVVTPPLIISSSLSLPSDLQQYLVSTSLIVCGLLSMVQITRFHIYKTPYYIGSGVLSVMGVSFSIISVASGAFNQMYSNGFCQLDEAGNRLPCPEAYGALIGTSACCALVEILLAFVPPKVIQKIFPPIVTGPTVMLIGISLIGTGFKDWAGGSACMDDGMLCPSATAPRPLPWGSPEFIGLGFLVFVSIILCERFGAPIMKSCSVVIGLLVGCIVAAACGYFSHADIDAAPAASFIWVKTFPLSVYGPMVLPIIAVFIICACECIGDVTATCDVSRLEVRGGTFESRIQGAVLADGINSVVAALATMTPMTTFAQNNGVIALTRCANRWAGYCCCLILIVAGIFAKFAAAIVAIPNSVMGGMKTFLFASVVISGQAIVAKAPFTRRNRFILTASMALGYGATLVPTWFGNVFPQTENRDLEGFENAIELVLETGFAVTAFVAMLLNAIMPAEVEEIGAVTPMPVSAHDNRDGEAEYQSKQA

| Molecule | Km (UapA) [µM] | Km [1] [µM] |
| --- | --- | --- |
| O=c1[nH]c(=O)c2[nH]cnc2[nH]1 [xanthine] | 5 ± 1 | – |
| B1 | – | 3 ± 1 |
